Measurements reported in publication PMC11678245, “The Molecular Basis of the Intrinsic and Acquired Resistance to Azole Antifungals in Aspergillus fumigatus” (Journal of Fungi, 2024).
Several values for one entry are separate records, joined by “and”; a condition that tells them apart may be missing. Equal values may be shown once. Read-outs that look alike come from different tables or passages of the source.

Key:
[1] = tested on: S. cerevisiae strain ADLS overexpressing ScCYP51-6×His; experiment: MIC80 susceptibility, strain ADLS; type: cell-based, Saccharomyces cerevisiae; conditions: for MIC80: Saccharomyces cerevisiae, Table 2, strain ADLS, SD pH 6.8, 48 h, 30 °C, ± SD, read-out: MIC80
Procedure: (§1) The susceptibilities of S. cerevisiae strains to antifungal drugs were determined as minimum growth inhibitory concentration (MIC) values in 200 μL SD pH 6.8 [24]. Serial 2-fold dilutions of 100 μL of azole or control drugs in SD pH 6.8 were prepared in a 96-well microtiter plate. A portion of a 2 mL SD pH 6.8 overnight culture of the test strain was inoculated into 3 mL fresh SD pH 6.8 and incubated for 4 to 6 h at 30 °C to generate logarithmic-phase cells. These cells were then diluted with fresh SD pH 6.8 to OD600nm = 0.01 (3 × 10^4 CFU), and 100 μL of this cell suspension was added to microtiter plate wells. Cell growth after 48 h incubation at 30 °C with shaking at 200 rpm was determined at 600 nm using a BioTek™ Synergy™ 2 multi-Mode microplate reader controlled using Gen5™ Data Analysis Software version 3.16.10 (BioTek Instruments, Winooski, VT, USA). MIC80 values (80% growth inhibition in the presence of the test drug compared with the untreated control) for each yeast construct were determined as technical triplicates repeated three times for three separate clones.

[2] = tested on: S. cerevisiae strain ARE (AfCyp51A-6×His, AfCprA2, AfErg6-FLAG); experiment: MIC80 susceptibility, strain ARE; type: cell-based, Saccharomyces cerevisiae
Procedure: as §1

[3] = tested on: S. cerevisiae strain ARE T289A (AfCyp51A-6×His T289A, AfCprA2, AfErg6-FLAG); experiment: MIC80 susceptibility, strain T289A; type: cell-based, Saccharomyces cerevisiae; conditions: for MIC80: ± SD
Procedure: as §1

[4] = tested on: S. cerevisiae strain BR (AfCyp51B-6×His, AfCprA2-6×His); experiment: MIC80 susceptibility, strain BR; type: cell-based; conditions: Saccharomyces cerevisiae; Table 2; strain BR; SD pH 6.8, 48 h, 30 °C; ± SD; read-out: MIC80
Procedure: as §1

[5] = tested on: S. cerevisiae strain BRE (AfCyp51B-6×His, AfCprA2, AfErg6-FLAG); experiment: MIC80 susceptibility, strain BRE; type: cell-based, Saccharomyces cerevisiae; conditions: for MIC80: strain BRE, ± SD
Procedure: as §1

[6] = tested on: S. cerevisiae Y2300 ADΔΔ CYP51 (ScCYP51); experiment: MIC80 susceptibility, strain Y2300 (Table S1); type: cell-based, Saccharomyces cerevisiae; conditions: Saccharomyces cerevisiae
Procedure: as §1, with “clones. […]” for “clones.”
Table S1. Azole susceptibilities of ScCYP51 and ScCYP51 T322I expressed
Data for each strain was obtained for […] in three biological replicates.

AfCYP51A-6×His = AfCYP51A-6×His (Aspergillus fumigatus, UniProt Q4WNT5); experiment: Type II binding of azole drugs (difference spectra); conditions: for λpeak (type II difference spectrum) / λtrough (type II difference spectrum) / ΔAmax (type II binding) / Hill Number / Kd: AfCYP51A; for λpeak (type II difference spectrum) / λtrough (type II difference spectrum) / ΔAmax (type II binding) / Kd: 1 μM enzyme; for ΔAmax (type II binding) / Kd: Hill equation
Chain of AfCYP51A-6×His (Q4WNT5 whole entry): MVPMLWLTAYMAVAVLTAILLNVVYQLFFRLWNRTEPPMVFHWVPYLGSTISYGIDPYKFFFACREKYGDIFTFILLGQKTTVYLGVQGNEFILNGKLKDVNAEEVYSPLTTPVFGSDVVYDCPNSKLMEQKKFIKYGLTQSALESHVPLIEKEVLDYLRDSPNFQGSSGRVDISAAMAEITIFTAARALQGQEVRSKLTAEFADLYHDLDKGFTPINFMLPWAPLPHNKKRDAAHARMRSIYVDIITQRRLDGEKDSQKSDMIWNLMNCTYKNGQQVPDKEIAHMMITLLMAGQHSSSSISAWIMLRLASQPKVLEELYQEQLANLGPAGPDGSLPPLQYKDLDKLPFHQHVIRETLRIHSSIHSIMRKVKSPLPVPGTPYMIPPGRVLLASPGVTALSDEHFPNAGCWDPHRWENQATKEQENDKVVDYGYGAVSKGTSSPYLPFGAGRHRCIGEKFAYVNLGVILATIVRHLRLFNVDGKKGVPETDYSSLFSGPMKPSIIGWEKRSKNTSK
Procedure: (§2) The concentration of AfCYP51A and AfCYP51B, purified using Ni-NTA affinity chromatography and used for the spectrophotometric type I and type II binding assays, was calculated using an extinction co-efficient of λ417nm = 117 mM^−1 cm^−1 applied to the absolute absorption spectrum of the preparations. In addition, the amount of “active” cytochrome P450 enzyme was determined using the carbon monoxide (CO) binding spectra of these preparations.
(§3) Type II binding difference spectra were obtained using 1 μM of affinity-purified CYP51 enzymes. VCZ, PCZ, VT-1161, DCZ, and MCF working solutions were prepared in DMSO, while FLC was prepared in Milli-Q water. Azole drugs were added to the sample cuvette, and corresponding amounts of DMSO or Milli-Q water were added to the reference cuvette. Drug binding curves were plotted using the difference spectrum peak and trough detected in the range of 410–425 nm. Dissociation constants (Kd) were determined by nonlinear regression (Levenberg–Marquardt algorithm) of the difference in absorbance between the peak and trough against the azole concentration using a rearrangement of the Morrison equation or the Hill equation [7]. GraphPad Prism 9.2.0 software was used to identify the best fit for the data.

AfCYP51B-6×His = target: T1, AfCYP51B-6×His (Aspergillus fumigatus, UniProt E9QY26); experiment: as above; conditions: for λpeak (type II difference spectrum) / λtrough (type II difference spectrum) / ΔAmax (type II binding) / Kd: 1 μM enzyme; for ΔAmax (type II binding) / Kd: Hill equation; for Hill Number / Kd: type II binding
T1 sequence (E9QY26 1-524): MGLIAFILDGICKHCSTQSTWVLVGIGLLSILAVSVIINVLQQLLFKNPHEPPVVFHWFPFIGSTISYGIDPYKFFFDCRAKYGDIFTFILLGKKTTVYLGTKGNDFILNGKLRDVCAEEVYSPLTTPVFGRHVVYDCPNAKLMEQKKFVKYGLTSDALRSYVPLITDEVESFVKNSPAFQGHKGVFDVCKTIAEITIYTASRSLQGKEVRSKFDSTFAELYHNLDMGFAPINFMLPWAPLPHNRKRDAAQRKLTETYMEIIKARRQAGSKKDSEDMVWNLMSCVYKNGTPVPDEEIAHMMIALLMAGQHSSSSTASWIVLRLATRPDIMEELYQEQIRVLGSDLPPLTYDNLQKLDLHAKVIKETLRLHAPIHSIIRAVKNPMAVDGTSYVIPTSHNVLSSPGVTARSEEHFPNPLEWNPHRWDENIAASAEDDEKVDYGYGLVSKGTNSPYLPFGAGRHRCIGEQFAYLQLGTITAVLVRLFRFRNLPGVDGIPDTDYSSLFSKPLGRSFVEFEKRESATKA
Procedure: as §2, §3

[7] = Saccharomyces cerevisiae, 48 h, pH 6.8, Table 2, strain T289A, SD pH 6.8, 48 h, 30 °C, read-out: MIC80
[8] = Saccharomyces cerevisiae, Table 2, SD pH 6.8, 48 h, 30 °C, read-out: MIC80

| Structure (SMILES) | MIC80 [1] [µM] | greater susceptibility (MIC80) of strain T289A compared with strain ARE [3] [fold] | MIC80 [3, 7] [µM] | MIC80 [4] [µM] | MIC80 [5, 8] [µM] | MIC80 [6] [µM] | λpeak (type II difference spectrum) (AfCYP51A-6×His) [nm] | λtrough (type II difference spectrum) (AfCYP51A-6×His) [nm] | ΔAmax (type II binding) (AfCYP51A-6×His) | Hill Number (AfCYP51A-6×His; type II binding) | Kd (AfCYP51A-6×His; type II binding) | λpeak (type II difference spectrum) (AfCYP51B-6×His) [nm] | λtrough (type II difference spectrum) (AfCYP51B-6×His) [nm] | ΔAmax (type II binding) (AfCYP51B-6×His) | Hill Number (AfCYP51B-6×His) | Kd (AfCYP51B-6×His) [nM] | other results |
| --- | --- | --- | --- | --- | --- | --- | --- | --- | --- | --- | --- | --- | --- | --- | --- | --- | --- |
| OC(Cn1cncn1)(Cn1cncn1)c1ccc(F)cc1F [FLC, fluconazole] | 8 ± 0.2 | 11 | 21.3 ± 2.7 | 2.9 ± 0.4 | 10 ± 1.4 | 6.2 ± 0.3 | 422 | 383 | 0.10 | 0.72 | 3230 ± 1130 nM | 425 | 407 | 0.09 | 1.75 | 1430 ± 70 | MIC80 of strain ADLS relative to strain ADΔΔ ([1]; higher): 3 fold; MIC80 ([2]; Saccharomyces cerevisiae, 48 h, pH 6.8): 227 ± 19 µM; MIC80 ([2]; Saccharomyces cerevisiae, Table 3, strain ARE, ± SD, read-out: MIC80): 151 ± 66 µM; MIC80 ([2]; Table 2, strain ARE, SD pH 6.8, 48 h, 30 °C, ± SD): 227 ± 18 µM and 227 ± 18.5 µM; MIC80 ([3]; Saccharomyces cerevisiae, Table 3, strain ARE T289A, read-out: MIC80): 12 ± 2 µM; MIC80 of strain T289A relative to strain ADΔΔ ([3]; higher): 7 fold; MIC80 ([5]; Saccharomyces cerevisiae, Table 3, read-out: MIC80): 3.8 ± 0.9 µM; MIC80 ([5]; Table 2, SD pH 6.8, 48 h, 30 °C): 10.0 ± 1.4 µM; Kd of AfCYP51A relative to AfCYP51B (AfCYP51A-6×His; type II binding): 2.26 fold |
| C[C@@H](c1ncncc1F)[C@](O)(Cn1cncn1)c1ccc(F)cc1F [VCZ, voriconazole] | 0.17 ± 0.03 | 2.5 | < 0.12 | 0.07 ± 0.01 | 0.21 ± 0.02 | 0.71 ± 0.03 | 422 | 392 | 0.05 | 1.10 | 1500 nM and 1520 nM | 427 | 410 | 0.03 | 1.12 | 800 ± 310 | MIC80 ([2]; Saccharomyces cerevisiae, Table 2, strain ARE, SD pH 6.8, 48 h, 30 °C, ± SD, read-out: MIC80): 0.27 ± 0.03 µM; MIC80 of strain ARE relative to strain ADΔΔ ([2]; higher): 4- to 5 fold; MIC80 ([3]; Table 2, strain T289A, SD pH 6.8, 48 h, 30 °C): 0.11 ± 0.00 µM; MIC80 of strain BRE relative to strain ADΔΔ ([5]; higher): 4- to 5 fold |
